Tests used:
[1] = target: T1, ecFolD K54N (Escherichia coli, UniProt P24186, K54N); assay: SPR binding to ecFolD K54N; design: species or system E. coli; conditions: K54N mutant
T1 construct: His-tag (TEV-cleavable, vector pHis-TEV); made in house; host or cells: E. coli BL21 (DE3)
Description: (§1) All surface plasmon resonance (SPR) experiments described in this study were performed on a Biacore X100 system. Different FolDs with or without His-tag were coupled on CM5 sensor chips (GE Healthcare) by the amine coupling method using a kit from GE Healthcare Life Sciences (Freiburg, Germany). A pH scouting process was performed before protein immobilization to test the most appropriate buffer and the protein concentration for protein coupling. Finally, 20 μg/mL of ecFolD in 10 mM maleate buffer (pH 6.8), 30 μg/mL of ecFolD Q98H in 10 mM maleate buffer (pH 6.3), 40 μg/mL of ecFolD K54N in 10 mM maleate buffer (pH 5.8), 20 μg/mL of spFolD in 10 mM maleate buffer (pH 6.0) and 15 μg/mL of MTHFD2 (His-tag cleaved) in 10 mM maleate buffer (pH 6.8) were used for coupling. In the protein immobilization procedure, the contact time was calculated based on the pH scouting results to achieve ~3000–5000 relative resonance units (RU). The buffer used in the SPR assays was 1× HBS-P buffer (10 mM HEPES pH 7.4, 150 mM NaCl, 0.05% Tween 20). The 1 mM stock solution of carolacton was prepared in 1× HBS-P buffer and diluted to different concentration ranges by two-fold serial dilution. In the SPR assay, the association time was 180 s and the dissociation time was 600 s. Data analysis was performed using the Biacore evaluation software. […]

[2] = target: T1, ecFolD K54N; assay: ecFolD K54N mutant dehydrogenase (DH) enzyme assay; type: biochemical, E. coli
Description: (6R,S)-5,10-Methylene-5,6,7,8-tetrahydrofolic acid ((6R,S)-5,10-CH2-THF) calcium salt and (6R,S)-5,10-Methenyl-5,6,7,8-tetrahydrofolic acid ((6R,S)-5,10-CH=THF) chloride were purchased from Schircks Laboratories (Bauma, Switzerland) and used as substrates for FolD dehydrogenase and cyclohydrolase enzyme assays, respectively. Only the R-isomer, which accounts for 50% of (6R,S)-5,10-CH2-THF and (6R,S)-5,10-CH=THF, respectively, is used by the enzyme. (6R,S)-5,10-CH2-THF was dissolved in N2-spargeled basic buffer (50 mM Tris-HCl (pH 8.0), 100 mM β-mercaptoethanol) as described by Varshney et al.[25]. (6R,S)-5,10-CH=THF was dissolved in DMSO as a 100 mM stock solution.
Because FolD is a bifunctional enzyme, dehydrogenase and cyclohydrolase activities were determined for FolD enzyme kinetics, respectively. The dehydrogenase activity of FolD was assayed for its substrate 5,10-CH2-THF and cofactor NADP^+ (in the case of MTHFD2, NAD^+ was used as the cofactor) based on monitoring the formation of 5,10-CH=THF, while the cyclohydrolase activity of FolD was determined for its substrate 5,10-CH=THF by monitoring the hydrolysis of […]. The enzyme kinetics for the dehydrogenase activity of all FolDs except hsMTHFD1_DC were determined at 30 °C in 50 mM Tris-HCl (pH 7.5), 30 mM β-mercaptoethanol. […]

[3] = target: T2, ecFolD (Escherichia coli, UniProt P24186); assay: SPR binding to ecFolD; design: species or system E. coli
T2 construct: His-tag (TEV-cleavable, vector pHis-TEV); made in house; host or cells: E. coli BL21 (DE3)
Description: as §1

With `CO[C@H](CC(=O)O)[C@@H](C)C(=O)[C@H](C)/C=C(\C)[C@H]1OC(=O)[C@H](O)[C@H](O)/C=C/[C@H](C)CCC[C@@H]1C` [carolacton] the “binding by SPR” value [1] was “does not bind”, the “sensitivity of residual DH activity to carolacton” value [2] was “completely insensitive” and the Kd [3] was 10 nM. It also gave a koff [3] of 0.01 s⁻¹.

Source: publication PMC5688156, “The natural product carolacton inhibits folate-dependent C1 metabolism by targeting FolD/MTHFD” (Nature Communications, 2017)
